According to patent US8247211B2, “Glycopeptide antibiotics” (American Cyanamid Company, priority 2001, dated 2012):

Columns and labels:
Assay in all cases: In vitro antibacterial evaluation: minimum inhibitory concentration (MIC), broth dilution method
Assay type in all cases: cell-based
Escherichia coli = conditions: 18 hours at 35° C.
Outline: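 Susceptibility determined by NCCLS-recommended broth dilution (M7-A2), Muller-Hinton II […]. Concentration span 64-0.06 μg/mL, inoculum 5×10^5 CFU/mL. Isolates include strains resistant to methicillin, penicillin and/or vancomycin.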

Staphylococcus sp. = system: Staphylococcus sp.
Outline: (§1)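 Using Muller-Hinton II […] and an inoculum of 5×10^5 CFU/mL, antibiotic dilutions from 64 down to 0.06 μg/mL were tested following NCCLS M7-A2. The MIC is the lowest concentration inhibiting growth, including in methicillin-, penicillin- or vancomycin-resistant clinical isolates.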

Enterococcus sp. = conditions: 18 hours at 35° C.
Outline: as §1

Streptococcus sp. = conditions: 18 hours at 35° C.
Outline: as §1

[1] = broth dilution, inoculum 5×10^5 CFU/mL

CC(C)CC(=O)OC1C(O)C(OC2C(CO)OC(Oc3ccc(CC4NC(=O)C(C(C)c5ccccc5)NC(=O)CNC(=O)C(CO)NC(=O)C(C(O)C5CNC(=N)N5C5OC(CO)C(O)C(O)C5O)NC(=O)C(C(O)C5CNC(=N)N5)NC4=O)cc3)C(O)C2O)OC2COC3(OC21)C1CC2CC(C1)CC3C2 (stereo not drawn) [Example 218, Cyclo[glycyl-β-methylphenylalanyl-O-[4-O-[4,6-O-(2-adamantylidene)-3-O-(3-methyl-butanoyl)-hexopyranosyl]hexopyranosyl]tyrosyl-3-(2-iminoimidazolidin-4-yl)-seryl-3-(3-hexopyranosyl-2-iminoimidazolidin-4-yl)serylseryl]]
64 µg/mL: MIC Escherichia coli (ATCC 25922) (Escherichia coli; Escherichia coli (ATCC 25922))
0.12 µg/mL: MIC Streptococcus pneumoniae (ATCC 6301) (Streptococcus sp.; Streptococcus pneumoniae (ATCC 6301)) | MIC Streptococcus pneumoniae (GC 4565) (Streptococcus sp.; Streptococcus pneumoniae (GC 4565)) | MIC Streptococcus pneumoniae (ATCC 6301) (Streptococcus sp.; [1]) | MIC Streptococcus pneumoniae (GC 4565) (Streptococcus sp.; [1])
<0.06 µg/mL: MIC Streptococcus pneumoniae (GC 1894) (Streptococcus sp.; Streptococcus pneumoniae (GC 1894)) | MIC Streptococcus pneumoniae (GC 1894) (Streptococcus sp.; [1])
4 µg/mL: MIC Staphylococcus aureus (ATCC 29213) (Staphylococcus sp.; strain ATCC 29213) | MIC Staphylococcus aureus (GC 1131) (Staphylococcus sp.; strain GC 1131) | MIC Staphylococcus aureus (GC 3051) (Staphylococcus sp.; strain GC 3051) | MIC Staphylococcus aureus (GC 3053) (Staphylococcus sp.; strain GC 3053) | MIC Staphylococcus aureus (GC 4541) (Staphylococcus sp.; strain GC 4541) | MIC Staphylococcus aureus (GC 4542) (Staphylococcus sp.; strain GC 4542) | MIC Staphylococcus aureus-SMITH (GC 4543) (Staphylococcus sp.; strain GC 4543) | MIC Staphylococcus aureus (GC 4544) (Staphylococcus sp.; strain GC 4544) | MIC Staphylococcus aureus (GC 4545) (Staphylococcus sp.; strain GC 4545) | MIC Staphylococcus haemolyticus (GC 4546) (Staphylococcus sp.; strain GC 4546) | MIC Coagulase Negative Staphylococcus (GC 4547) (Staphylococcus sp.; strain GC 4547) | MIC Coagulase Negative Staphylococcus (GC 4548) (Staphylococcus sp.; strain GC 4548) | MIC Coagulase Negative Staphylococcus (GC 4549) (Staphylococcus sp.; strain GC 4549) | MIC Coagulase Negative Staphylococcus (GC 6257) (Staphylococcus sp.; strain GC 6257) | MIC Enterococcus avium (GC 4558) (Enterococcus sp.; Enterococcus avium (GC 4558)) | MIC Enterococcus faecalis (ATCC 29212) (Enterococcus sp.; Enterococcus faecalis (ATCC 29212)) | MIC Enterococcus faecalis (GC 2242) (Enterococcus sp.; Enterococcus faecalis (GC 2242)) | MIC Enterococcus faecalis (GC 2691) (Enterococcus sp.; Enterococcus faecalis (GC 2691)) | MIC Enterococcus faecalis (GC 3059) (Enterococcus sp.; Enterococcus faecalis (GC 3059)) | MIC Enterococcus faecalis (GC 4552) (Enterococcus sp.; Enterococcus faecalis (GC 4552)) | MIC Enterococcus faecalis (GC 4553) (Enterococcus sp.; Enterococcus faecalis (GC 4553)) | MIC Enterococcus faecalis (GC 4554) (Enterococcus sp.; Enterococcus faecalis (GC 4554)) | MIC Enterococcus faecalis (GC 6189) (Enterococcus sp.; Enterococcus faecalis (GC 6189)) | MIC Enterococcus faecium (GC 2243) (Enterococcus sp.; Enterococcus faecium (GC 2243)) | MIC Enterococcus faecium (GC 4556) (Enterococcus sp.; Enterococcus faecium (GC 4556)) | MIC Enterococcus faecium (GC 4557) (Enterococcus sp.; Enterococcus faecium (GC 4557)) | MIC Enterococcus avium (GC 4558) (Enterococcus sp.; [1]) | MIC Enterococcus faecalis (ATCC 29212) (Enterococcus sp.; [1]) | MIC Enterococcus faecalis (GC 2242) (Enterococcus sp.; [1]) | MIC Enterococcus faecalis (GC 2691) (Enterococcus sp.; [1]) | MIC Enterococcus faecalis (GC 3059) (Enterococcus sp.; [1]) | MIC Enterococcus faecalis (GC 4552) (Enterococcus sp.; [1]) | MIC Enterococcus faecalis (GC 4553) (Enterococcus sp.; [1]) | MIC Enterococcus faecalis (GC 4554) (Enterococcus sp.; [1]) | MIC Enterococcus faecalis (GC 6189) (Enterococcus sp.; [1]) | MIC Enterococcus faecium (GC 2243) (Enterococcus sp.; [1]) | MIC Enterococcus faecium (GC 4556) (Enterococcus sp.; [1]) | MIC Enterococcus faecium (GC 4557) (Enterococcus sp.; [1])
8 µg/mL: MIC Escherichia coli (GC 4560) (Escherichia coli; Escherichia coli (GC 4560)) | MIC Coagulase Negative Staphylococcus (GC 4551) (Staphylococcus sp.; strain GC 4551)
0.25 µg/mL: MIC Streptococcus agalactiae (GC 4564) (Streptococcus sp.; Streptococcus agalactiae (GC 4564)) | MIC Streptococcus agalactiae (GC 4564) (Streptococcus sp.; [1])
0.5 µg/mL: MIC Streptococcus pyogenes (GC 4563) (Streptococcus sp.; Streptococcus pyogenes (GC 4563)) | MIC Streptococcus pyogenes (GC 4563) (Streptococcus sp.; [1])
>64 µg/mL: MIC Escherichia coli (GC 4559) (Escherichia coli; Escherichia coli (GC 4559))
